# Laboratory results: patent publication US20050113450A1, “Antibacterial agents” (priority 2002, published 2005)
# System: SA 9218
# Assay: MIC by standard agar dilution method
# Type: cell-based
# Conditions: Mueller Hinton agar, 10^4 to 10^5 cells per spot, incubated overnight at 35° C., lowest concentration that inhibits visible growth
# How it was run: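 Agar dilution: two-fold compound dilutions mixed into molten Mueller Hinton agar, spots of ~10^4–10^5 cells from 0.5 McFarland suspension diluted 1:20 in TSB. Incubated overnight at 35 °C; MIC is lowest concentration inhibiting visible growth.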
Structure (SMILES),MIC,SA 9218 MIC
Cc1noc(C)c1-c1ccc(NC(=O)c2cccc(S(=O)(=O)N3CCc4cc(Cl)ccc43)c2)c(C(=O)O)c1 [PHA-569977],16 µg/mL,–
N#Cc1ccc(NC(=O)c2cccc(C(=O)C3CCCC3)c2)c(C(=O)O)c1 [PHA-570042],2 µg/mL,–
O=C(Nc1ccc(Cl)cc1C(=O)O)c1cc(Br)cc(S(=O)(=O)N2CCc3ccccc32)c1 [PHA-570949],1 µg/mL,–
COc1cccc(C(=O)Nc2ccc(C#N)cc2C(=O)O)c1 [PHA-571151],8 µg/mL,–
COc1ccc(Br)c(C(=O)Nc2ccc(C#N)cc2C(=O)O)c1 [PHA-571153],64 µg/mL,–
N#Cc1ccc(NC(=O)c2cccc(Cl)c2)c(C(=O)O)c1 [PHA-571155],32 µg/mL,–
CC(C)CN(CC(C)C)S(=O)(=O)c1cccc(C(=O)Nc2ccc(C#N)cc2C(=O)O)c1 [PHA-571164],8 µg/mL,–
N#Cc1ccc(NC(=O)c2cccc(S(=O)(=O)N3CCN(c4ncccn4)CC3)c2)c(C(=O)O)c1 [PHA-571170],64 µg/mL,–
COc1cc2c(cc1OC)CN(S(=O)(=O)c1cccc(C(=O)Nc3ccc(C#N)cc3C(=O)O)c1)CC2 [PHA-571194],4 µg/mL,–
CN(CCC(O)c1ccccc1)S(=O)(=O)c1cccc(C(=O)Nc2ccc(C#N)cc2C(=O)O)c1 (centres unmarked) [PHA-571196],64 µg/mL,–
CCCCN(CC)S(=O)(=O)c1cccc(C(=O)Nc2ccc(C#N)cc2C(=O)O)c1 [PHA-571197],16 µg/mL,–
CN(CCc1ccccc1)S(=O)(=O)c1cccc(C(=O)Nc2ccc(C#N)cc2C(=O)O)c1 [PHA-571215],8 µg/mL,–
CC(C)N(Cc1ccccc1)S(=O)(=O)c1cccc(C(=O)Nc2ccc(C#N)cc2C(=O)O)c1 [PHA-571216],32 µg/mL,–
CC(C(O)c1ccccc1)N(C)S(=O)(=O)c1cccc(C(=O)Nc2ccc(C#N)cc2C(=O)O)c1 (centres unmarked) [PHA-571226],64 µg/mL,–
CCCCN(CC#N)S(=O)(=O)c1cccc(C(=O)Nc2ccc(C#N)cc2C(=O)O)c1 [PHA-571237],16 µg/mL,–
N#CCCN(Cc1ccccc1)S(=O)(=O)c1cccc(C(=O)Nc2ccc(C#N)cc2C(=O)O)c1 [PHA-571238],128 µg/mL,–
N#CCCN(Cc1ccccc1)S(=O)(=O)c1ccc(C(=O)Nc2ccc(C#N)cc2C(=O)O)cc1 [PHA-571246],32 µg/mL,–

Structure (SMILES),MIC,SA 9218 MIC
CC(C(O)c1ccccc1)N(C)S(=O)(=O)c1cccc(C(=O)Nc2ccc(C#N)cc2C(=O)O)c1 (centres unmarked) [PHA-571260],–,32 µg/mL
N#Cc1ccc(NC(=O)c2cccc(S(=O)(=O)N3CCC(C#N)(c4ccccc4)CC3)c2)c(C(=O)O)c1 [PHA-571262],32 µg/mL,–
N#Cc1ccc(NC(=O)c2cccc(S(=O)(=O)N3CCN(c4cccc(C(F)(F)F)c4)CC3)c2)c(C(=O)O)c1 [PHA-571267],32 µg/mL,–
CN(CCC#N)S(=O)(=O)c1cccc(C(=O)Nc2ccc(C#N)cc2C(=O)O)c1 [PHA-571271],64 µg/mL,–
CC(C(O)c1ccccc1)N(C)S(=O)(=O)c1cccc(C(=O)Nc2ccc(C#N)cc2C(=O)O)c1 (centres unmarked) [PHA-571272],–,32 µg/mL
O=C1CCC(COc2cccc(C(=O)Nc3ccc(Br)cc3C(=O)O)c2)N1 (centres unmarked) [PHA-571280],–,>128 µg/mL
O=C1CCC(COc2cccc(C(=O)Nc3ccc(Br)cc3C(=O)O)c2)N1 (centres unmarked) [PHA-571281],128 µg/mL,–
COc1cc(COc2cccc(C(=O)Nc3ccc(Br)cc3C(=O)O)c2)ccc1[N+](=O)[O-] [PHA-571282],16 µg/mL,–
COC(=O)c1ccc(COc2cccc(C(=O)Nc3ccc(Br)cc3C(=O)O)c2)cc1 [PHA-571283],16 µg/mL,–
O=C(Nc1ccc(Br)cc1C(=O)O)c1cccc(OC2CCOC2=O)c1 (centres unmarked) [PHA-571285],64 µg/mL,–
CC(C)(C)OC(=O)NC(COc1cccc(C(=O)Nc2ccc(Br)cc2C(=O)O)c1)c1ccccc1 (centres unmarked) [PHA-571287],2 µg/mL,–
CCOC(=O)C1CCC(Oc2cccc(C(=O)Nc3ccc(Br)cc3C(=O)O)c2)CC1 (centres unmarked) [PHA-571289],32 µg/mL,–
C=CCC(CC=C)Oc1ccc(C(=O)Nc2ccc(Br)cc2C(=O)O)cc1 [PHA-571292],32 µg/mL,–
O=C(Nc1ccc(Cl)cc1C(=O)O)c1cccc(S(=O)(=O)N2CCOCC2)c1 [PHA-571395],4 µg/mL,–
O=C(Nc1ccc(Br)cc1C(=O)O)c1cccc(S(=O)(=O)N2CCOCC2)c1 [PHA-571396],4 µg/mL,–
O=C(Nc1ccc([N+](=O)[O-])cc1C(=O)O)c1cccc(S(=O)(=O)N2CCOCC2)c1 [PHA-571397],4 µg/mL,–
O=C(Nc1ccc(I)cc1C(=O)O)c1cccc(S(=O)(=O)N2CCOCC2)c1 [PHA-571458],4 µg/mL,–

# Other lines, results leading:
MIC,SA 9218 MIC,Structure (SMILES)
32 µg/mL,–,CN(C)c1ccc(C(=O)Nc2ccc(C#N)cc2C(=O)O)cc1 [PHA-571157]
> 128 µg/mL,–,N#Cc1ccc(NC(=O)c2cccc(S(=O)(=O)N3CCc4ccccc43)c2)c(C(=O)O)c1 [PHA-571161]
32 µg/mL,–,N#Cc1ccc(NC(=O)c2cccc(S(=O)(=O)N3CCC3)c2)c(C(=O)O)c1 [PHA-571167]
32 µg/mL,–,CN(CCc1ccccc1)S(=O)(=O)c1ccc(C(=O)Nc2ccc(C#N)cc2C(=O)O)cc1 [PHA-571169]
32 µg/mL,–,CC(=O)c1ccc(N2CCN(S(=O)(=O)c3cccc(C(=O)Nc4ccc(C#N)cc4C(=O)O)c3)CC2)cc1 [PHA-571172]
64 µg/mL,–,N#Cc1ccc(NC(=O)c2ccc(S(=O)(=O)N3CCCCCC3)cc2)c(C(=O)O)c1 [PHA-571174]
64 µg/mL,–,CCN(CC)C(=O)C1CCCN(S(=O)(=O)c2cccc(C(=O)Nc3ccc(C#N)cc3C(=O)O)c2)C1 (centres unmarked) [PHA-571176]
64 µg/mL,–,CC1CN(S(=O)(=O)c2ccc(C(=O)Nc3ccc(C#N)cc3C(=O)O)cc2)CC(C)O1 (centres unmarked) [PHA-571182]
–,32 µg/mL,CC(C(O)c1ccccc1)N(C)S(=O)(=O)c1ccc(C(=O)Nc2ccc(C#N)cc2C(=O)O)cc1 (centres unmarked) [PHA-571183]
128 µg/mL,–,CN(C1CCCCC1)S(=O)(=O)c1cccc(C(=O)Nc2ccc(C#N)cc2C(=O)O)c1 [PHA-571186]
8 µg/mL,–,N#Cc1ccc(NC(=O)c2ccc(S(=O)(=O)N3CCC(C#N)(c4ccccc4)CC3)cc2)c(C(=O)O)c1 [PHA-571188]
64 µg/mL,–,CCC1CCCCN1S(=O)(=O)c1ccc(C(=O)Nc2ccc(C#N)cc2C(=O)O)cc1 (centres unmarked) [PHA-571189]
> 128 µg/mL,–,COc1cc2c(cc1OC)CN(S(=O)(=O)c1ccc(C(=O)Nc3ccc(C#N)cc3C(=O)O)cc1)CC2 [PHA-571198]
64 µg/mL,–,N#Cc1ccc(NC(=O)c2ccc(S(=O)(=O)N3CCN(c4ccc([N+](=O)[O-])cc4)CC3)cc2)c(C(=O)O)c1 [PHA-571199]
128 µg/mL,–,CCN(CC)C(=O)C1CCCN(S(=O)(=O)c2ccc(C(=O)Nc3ccc(C#N)cc3C(=O)O)cc2)C1 (centres unmarked) [PHA-571202]
32 µg/mL,–,CCCCN(CC#N)S(=O)(=O)c1ccc(C(=O)Nc2ccc(C#N)cc2C(=O)O)cc1 [PHA-571203]
32 µg/mL,–,CC(C)N(Cc1ccccc1)S(=O)(=O)c1ccc(C(=O)Nc2ccc(C#N)cc2C(=O)O)cc1 [PHA-571205]
32 µg/mL,–,N#Cc1ccc(NC(=O)c2ccc(S(=O)(=O)Nc3ccc4c(c3)CCC4)cc2)c(C(=O)O)c1 [PHA-571207]
64 µg/mL,–,N#Cc1ccc(NC(=O)c2cccc(S(=O)(=O)N3CCN(c4ccccc4)CC3)c2)c(C(=O)O)c1 [PHA-571208]
16 µg/mL,–,CCCCN(CC)S(=O)(=O)c1ccc(C(=O)Nc2ccc(C#N)cc2C(=O)O)cc1 [PHA-571214]
32 µg/mL,–,N#Cc1ccc(NC(=O)c2cccc(S(=O)(=O)N3CCC(O)CC3)c2)c(C(=O)O)c1 [PHA-571219]
8 µg/mL,–,N#Cc1ccc(NC(=O)c2cccc(S(=O)(=O)N3CCCCCC3)c2)c(C(=O)O)c1 [PHA-571224]

MIC,SA 9218 MIC,Structure (SMILES)
–,32 µg/mL,CC(C(O)c1ccccc1)N(C)S(=O)(=O)c1ccc(C(=O)Nc2ccc(C#N)cc2C(=O)O)cc1 (centres unmarked) [PHA-571228]
16 µg/mL,–,N#Cc1ccc(NC(=O)c2cccc(S(=O)(=O)N3CCN(c4ccc(F)cc4)CC3)c2)c(C(=O)O)c1 [PHA-571230]
> 128 µg/mL,–,N#Cc1ccc(NC(=O)c2ccc(S(=O)(=O)N3CCC(O)CC3)cc2)c(C(=O)O)c1 [PHA-571231]
> 128 µg/mL,–,CN(CCC#N)S(=O)(=O)c1ccc(C(=O)Nc2ccc(C#N)cc2C(=O)O)cc1 [PHA-571232]
8 µg/mL,–,CC1CC(C)CN(S(=O)(=O)c2ccc(C(=O)Nc3ccc(C#N)cc3C(=O)O)cc2)C1 (centres unmarked) [PHA-571234]
8 µg/mL,–,N#Cc1ccc(NC(=O)c2cccc(S(=O)(=O)N3CCCC4CCCCC43)c2)c(C(=O)O)c1 (centres unmarked) [PHA-571235]
128 µg/mL,–,N#Cc1ccc(NC(=O)c2ccc(S(=O)(=O)N3CCC3)cc2)c(C(=O)O)c1 [PHA-571239]
16 µg/mL,–,CC1CCN(S(=O)(=O)c2ccc(C(=O)Nc3ccc(C#N)cc3C(=O)O)cc2)CC1 [PHA-571240]
16 µg/mL,–,CC1CCCN(S(=O)(=O)c2ccc(C(=O)Nc3ccc(C#N)cc3C(=O)O)cc2)C1 (centres unmarked) [PHA-571241]
32 µg/mL,–,CC(C(O)c1ccccc1)N(C)S(=O)(=O)c1ccc(C(=O)Nc2ccc(C#N)cc2C(=O)O)cc1 (centres unmarked) [PHA-571242]
4 µg/mL,–,CC1CC(C)CN(S(=O)(=O)c2cccc(C(=O)Nc3ccc(C#N)cc3C(=O)O)c2)C1 (centres unmarked) [PHA-571243]
16 µg/mL,–,N#Cc1ccc(NC(=O)c2ccc(S(=O)(=O)N3CCCC4CCCCC43)cc2)c(C(=O)O)c1 (centres unmarked) [PHA-571249]
16 µg/mL,–,C=CCN(C1CCCC1)S(=O)(=O)c1ccc(C(=O)Nc2ccc(C#N)cc2C(=O)O)cc1 [PHA-571253]
> 128 µg/mL,–,N#Cc1ccc(NC(=O)c2ccc(S(=O)(=O)N3CCOCC3)cc2)c(C(=O)O)c1 [PHA-571255]
64 µg/mL,–,COCC1CCCN1S(=O)(=O)c1ccc(C(=O)Nc2ccc(C#N)cc2C(=O)O)cc1 (centres unmarked) [PHA-571257]
16 µg/mL,–,CCC1CCCCN1S(=O)(=O)c1cccc(C(=O)Nc2ccc(C#N)cc2C(=O)O)c1 (centres unmarked) [PHA-571263]
32 µg/mL,–,CN(C1CCCCC1)S(=O)(=O)c1ccc(C(=O)Nc2ccc(C#N)cc2C(=O)O)cc1 [PHA-571264]
16 µg/mL,–,N#Cc1ccc(NC(=O)c2ccc(S(=O)(=O)N3CCc4ccccc4C3)cc2)c(C(=O)O)c1 [PHA-571265]
16 µg/mL,–,N#Cc1ccc(NC(=O)c2cccc(S(=O)(=O)N3CCc4ccccc4C3)c2)c(C(=O)O)c1 [PHA-571269]
8 µg/mL,–,CC1CCCN(S(=O)(=O)c2cccc(C(=O)Nc3ccc(C#N)cc3C(=O)O)c2)C1 (centres unmarked) [PHA-571270]
8 µg/mL,–,CC1CCN(S(=O)(=O)c2cccc(C(=O)Nc3ccc(C#N)cc3C(=O)O)c2)CC1 [PHA-571273]
